Source: the NIST ThermoML archive (doi:10.1016/j.jct.2005.06.013)
Numbers after ± are expanded uncertainties.

Conditions: 298.15 K; 101.33 kPa; Crystal; mass and volume measurments

mass density: 1130 ± 20 kg/m3
SMILES: Oc1cccnc1O [2,3-dihydroxypyridine]
